Where a name gives a salt, the structure may show the parent alone.
Columns and labels:
[1] = Solubility; type: physicochemical
[2] = Stability at room temperature; type: physicochemical; settings: maleic acid salt
[3] = test system: Shay ulcer of rats; assay: Effect on Shay ulcer of rats (pylorus ligation); type: in vivo, Wistar male rats; settings: for Inhibition rate: ulcer-index 19 h after pylorus ligation
Experimental: Effect on Shay ulcer of rats
A group of 8 Wistar male rats weighing 130-180 g were used in a group. […] Nineteen hours after ligation, the severity of ulcerous lesions in the proventricular part of the stomach was observed and expressed in a numerical scale according to the method of Adami et al. (Arch. Int. Pharmacodyn. Ther., 143, 113 (1964)) as the ulcer-index. Inhibition of ulceration was calculated with ulcer-indexes of the treated group and those of a control group. The anti-ulcer effects of well-known therapeutic agents on the market, sulpiride and cetraxate, were examined for comparison.

[4] = test system: histamine-induced ulcer in guinea-pigs; assay: Effect on histamine-induced ulcer in guinea-pigs; type: in vivo, male guinea-pigs; settings: for Inhibition rate: 2 h
Experimental: Effect on histamine-induced ulcer in guinea-pigs
Groups of 10 male guinea-pigs weighing 280-300 g were used. […] Two hours later, the stomach was removed and the size of the ulcerous lesions were measured. Based on the size of the lesions, the inhibitory effect of the drug was estimated. The effects of sulpiride, cetraxate and aluminum sucrose sulphate were also determined for comparison.

[5] = test system: acetic acid-induced ulcer in rats; assay: Effect on acetic acid-induced ulcer in rats; type: in vivo, male Wistar rats; settings: for Inhibition rate: lesion size 12 days after acetic acid
Experimental: Effect on acetic acid-induced ulcer in rats
Groups of 14-16 male Wistar rats weighing 210-280 g were used. According to the method of Okabe et al. (Folia Pharmacologica Japonica, 74, 773 (1978)), 0.015 ml of 20% acetic acid solution was injected under the serous membrane at the border of the proventricular part and glandular part of the stomach. […] The stomach was removed 12 days after the injection of acetic acid and the size of the ulcerous lesions was measured. Based on the size of the lesions, the inhibitory effect of the drug was estimated. The effects of sulpiride were also determined for comparison.

[6] = in vivo; settings: mouse, in vivo, po, LD50, ICR mice, mortality at 7 days, Litchfield-Wilcoxon method
Experimental: (§1) LD50 was calculated by the Litchfield-Wilcoxon method using mortality at 7 days after drug administration.

[7] = test system: ICR mice; assay: in vivo; settings: Table 4: ICR mice and Wistar rats, acute oral toxicity
Experimental: as §1

[8] = Acute oral toxicity in rats; settings: rat, in vivo, Wistar rats, male, mortality at 7 days, Litchfield-Wilcoxon method
[9] = known compound; cited from earlier work
[10] = histamine-induced ulcer, 300 mg/kg, 5 mg/kg i.v. histamine

## CN1CCC2=C(C1)c1ccccc1Cc1ccccc12 [Maleic acid salt of MO-8282]
[1]; water or ethanol, maleic acid salt
  solubility (soluble in): soluble in water or ethanol
[2]
  stability: stable at room temperature

## CN1CCC2=C(C1)c1ccccc1Cc1ccccc12 [MO-8282, 2-N-methyl-1,2,3,4-tetrahydro-9H-dibenzo[a,e]-pyridino[3,4-c]-cycloheptatriene]
[3]
  inhibitory action on Shay ulcer (in words): significant inhibitory action on Shay ulcer in rats
[3]; Shay ulcer, 3 mg/kg s.c.
  Inhibition rate: 34.9%
[3]; Shay ulcer, 10 mg/kg s.c.
  Inhibition rate: 44.2%
[3]; Shay ulcer, versus sulpiride and cetraxate
  efficacy compared with reference drugs (in words): superior to the two reference drugs, sulpiride and cetraxate
[4]
  inhibitory action on histamine-induced ulcers (in words): significant inhibitory action on histamine-induced ulcers in guinea-pigs
[4]; histamine-induced ulcer, 3 mg/kg orally 10 min before 5 mg/kg i.v. histamine
  Inhibition rate: 54.7%
[4]; histamine-induced ulcer, 10 mg/kg orally 10 min before 5 mg/kg i.v. histamine
  Inhibition rate: 98.6%
[4]; histamine-induced ulcer, versus the reference drugs
  efficacy compared with reference drugs (in words): superior to that of the reference drugs
[5]
  inhibitory action on acetic acid-induced ulcer (in words): significant inhibitory action on acetic acid-induced ulcer in rats
[5]; acetic acid-induced ulcer, 3 mg/kg orally three times a day for 10 days
  Inhibition rate: 23.2%
[5]; acetic acid-induced ulcer, 10 mg/kg orally three times a day for 10 days
  Inhibition rate: 51.2%
[5]; acetic acid-induced ulcer, microscopic observation
  promotion of healing (in words): promotion of healing by the compound was also evident under microscopic observation
[5]; acetic acid-induced ulcer, versus sulpiride
  efficacy compared with reference drug (in words): superior to that of the reference drug with a lower dose
[6]; female
  LD50 at 168 h: 454 mg/kg
[6]; male
  LD50 at 168 h: 423 mg/kg
[7]
  toxic dose compared with therapeutic dose (in words): considerably higher than its therapeutic dose
[8]
  LD50 at 168 h: 630 mg/kg
[1]; ethanol, free base
  solubility (insoluble in): insoluble in ethanol
[1]; solvents in which soluble, free base
  solubility (soluble in): soluble in ether, ethyl acetate, n-hexane and chloroform
[9]
  anti-depressive activity (in words): has anti-depressive activity

## NC[C@H]1CC[C@H](C(=O)Oc2ccc(CCC(=O)O)cc2)CC1 [Cetraxate, reference compound]
[3]; Shay ulcer, 300 mg/kg
  Inhibition rate: 44.2%
[4]; [10]
  Inhibition rate: -7.0%

## CCN1CCCC1CNC(=O)c1cc(S(N)(=O)=O)ccc1OC (stereo not drawn) [Sulpiride, reference compound]
[3]; Shay ulcer, 100 mg/kg
  Inhibition rate: 16.3%
[4]; [10]
  Inhibition rate: 5.6%
[5]; acetic acid-induced ulcer, 100 mg/kg
  Inhibition rate: 43.9%
